Assay [1] deals with pancreatic cancer cells PANC-1 (ATCC CRL-1469). Description: SRB (Sulforhodamine B) assay in PANC-1 cells. Type of assay: cell-based. The conditions noted are these: Homo sapiens, PANC-1. How it is done:
(§1) FIGS. 1A-1B show the IC50 curves of the twelve investigational β-lactams in pancreatic cancer cells PANC-1 (ATCC CRL-1469) and normal pancreatic ductal epithelial cells (ATCC CRL-4038). The GraphPad Prism software was used to process the results. The IC50 values were determined by SRB (Sulforhodamine B) assay following standard procedure. PANC-1 cells were plated in 96 well plates and treated with 1, 10, 100, 1000 and 10,000 nM of each of the drugs in triplicate for 72 hrs. Cells were fixed, washed and stained with SRB dye, the stained cells were washed, and the dye solubilized. It was read using a plate reader at 565 nm. The IC50 values were calculated assuming that the 10 μM sample has reached saturation. Following similar way, IC50 values were determined for normal pancreatic ductal epithelial cells.
(§2) As mentioned earlier, PANC-1 is referred to generically as the “gold standard of pancreatic cancers” representing as it does almost total resistance to GEM, the first line treatment currently used in clinical situations. Pancreatic cancer cells PANC-1 (ATCC CRL-1469) and normal pancreatic ductal epithelial cells (ATCC CRL-4038) were used in this study. The GraphPad Prism software was used to process the results. […] Cells were fixed, washed and stained with SRB dye, the stained cells were washed, and the dye solubilized. It was read using a plate reader at 565 nm. The IC50 values were calculated assuming that the 10 μM sample has reached saturation. Following similar way, IC50 values were determined for normal pancreatic ductal epithelial cells.

Assay [2] concerns HPAF-II. Description: Cytotoxicity IC50 in HPAF-II cells. The conditions noted are these: Homo sapiens; HPAF-II cell line; read-out: IC50 (mean ± standard error). It is filed as cell-based. The text has this: (§3) B. Cytotoxicity Studies: Determination of IC50 Values (Single Run) in Capan-2, HPAC. HPAF-II, and HS766T Cell Lines
(§4) Capan-2, HPAC. HPAF-H, and HS766T. The compounds A, D, E, G, and H were chosen randomly, out of twelve β-laclam molecules, to carry out this evaluation.

In assay [3] the test system is normal pancreatic ductal epithelial cells (ATCC CRL-4038). Briefly: SRB (Sulforhodamine B) assay in normal pancreatic ductal epithelial cells. The conditions noted are these: Epithelial cell; 2D-culture, SRB, average of 3 runs; read-out: IC50 (NPC). It is filed as cell-based. How it is done:
as §1, §2

Assay [4] deals with Phospho-Histone H2A.X (Ser139) in PANC-1 cells. Description: ICC-IF with Phospho-Histone H2A.X (Ser139) (γ-H2AX staining). It is filed as cell-based, human. The conditions noted are these: 1 μM, compared to control. The text has this:
This immunocytochemistry-immunofluorescence (ICC-IF) with Phospho-Histone H2A.X (Ser139) assay enables the quantitative detection of the histone variant H2AX, phosphorylated on serine 139. This modification serves as a sensitive biomarker for the detection of such breaks, localizing the site of DNA repair. Gamma-H2AX triggers cell cycle arrest and DNA damage response repair, and this assay is used to study genome stability, the cell cycle, DNA repair, and it serves as a biomarker for cancer and offers enhanced convenience over other immunoassay technologies. The PANC-1 cells were grown, treated with 1 μM concentration of the compound “D”, fixed and strained directly in chamber slides. Cells were submerged with blocking buffer for 60 min and then incubated with primary antibody Phospho-Histone H2A.X (Ser139) for overnight at 4° C. Then the cells were rinsed for three times in 1×PBS for 5 min each. The specimen was incubated in fluorochrome-conjugated secondary antibody diluted in antibody dilution buffer for 1-2 h at room temperature in the dark and then rinsed for three times in 1×PBS for 5 min each. […]
This assay was also performed with the compound D, prior to the determination of IC50 values in normal pancreatic ductal epithelial cell lines. This assay enables the quantitative detection of the histone variant H2AX, phosphorylated on serine 139. […]

Assay [5] has as its system PANC-1 cells. Briefly: Annexin V assay to determine apoptosis. Type of assay: cell-based, human. The conditions noted are these: 0.5, 1, and 2 μM, 16 hrs. On the procedure: Cell death was identified as apoptosis through Annexin V assay. For this study, PANC-1, the most commonly known drug-resistance pancreatic cancer cell line was used. […] Error bars show standard deviation (n=3). For optimal throughput, final cell concentrations were maintained between 2×10^4 and 1×10^5 cells/well (or 1×10^5 to 5×10^5 cells/mL). Doxorubicin was used as control at a concentration of 5 μM for 16 hrs. For this study, PANC-1, the most commonly known drug-resistance pancreatic cancer cell lines were used. […] Error bars show standard deviation (n=3). For optimal throughput, final cell concentrations were maintained between 2×10^4 and 1×10^5 cells/well (or 1×10^5 to 5×10^5 cells/mL). Doxorubicin was used as a control at a concentration of 5 uM for 16 hrs (FIG. 5). Apoptosis was identified as the mechanism of cell death.

The subject of assay [6] is HS 766T. Briefly: Cytotoxicity IC50 in HS 766T cells. The conditions noted are these: Homo sapiens, Hs766T; HS 766T cell line; read-out: IC50 (mean ± standard error). Type of assay: cell-based.
Source text: as §3, §4

In assay [7] the test system is PANC-1 cells. Briefly: BrdU incorporation immunostaining. The conditions noted are these: compared to control. It is filed as cell-based, human. How it is done:
BrdU (5-bromo-2′-deoxyuridine) incorporation to proceed with immunostaining coverslip slides with Prolong® Gold Antifade reagent were visualized under microscope. Alexa Fluor® 488 (green) was used for BrdU staining along with nuclear marker DAPI (blue). BrdU images were co-localized with nuclear marker DAPI blue.
Diluted BrdU in fresh, pre-warmed growth medium to a final concentration of 0.03 mg/mL. This mixture was added to cells and incubated at 37° C. for 30 min. The medium was aspirated; cells were completely covered with 70% ethanol for 5 min. The fixative was aspirated and the cells were rinsed three times in 1×PBS for 5 min each. Therefore, 1.5 mL HCl and incubated for 30 min at room temperature. Then the HCl was aspirated and rinsed to times in 1×PBS for 5 min each. Subsequent proceeding for immunostaining followed the below steps: The cells were submerged with blocking buffer for 60 min and subsequently incubated with primary antibody (BrdU Mouse mAb) for overnight at 4° C. Therefore, the cells were rinsed three times in 1×PBS for 5 min each and incubated in fluorochrome-conjugated secondary antibody diluted in antibody dilution buffer for 1-2 h at room temperature in the dark and then rinsed for three times in 1×PBS for 5 min each. Coverslip slides with Prolong® Gold Antifade reagem were visualized under microscope. […]
On the technique in general: Dividing cells build labelled thymidine or BrdU into new DNA.

Assay [8] concerns drug-resistant pancreatic cancer cell lines. Description: IC50 against drug-resistant pancreatic cancer cell lines. It is filed as cell-based. The conditions noted are these: Homo sapiens, range over cell lines.
For assay [9], the system named is CaPan-2. Description: Cytotoxicity IC50 in CaPan-2 cells. It is filed as cell-based. The conditions noted are these: Homo sapiens; CaPan-2 cell line; read-out: IC50 (mean ± standard error).
Source text: as §3, §4

In assay [10] the test system is HPAC. Briefly: Cytotoxicity IC50 in HPAC cells. Type of assay: cell-based. The conditions noted are these: Homo sapiens; HPAC cell line; read-out: IC50 (mean ± standard error).
Source text: as §3, §4

[11] abbreviates: 2D-culture, SRB, 72 hrs, average of 3 runs, read-out: IC50 (PANC-1).

The results in this text go back to patent publication US20210214341A1, “SUBSTITUTED PYRIDINYL AZETIDINONE DERIVATIVES FOR USE IN TREATING CANCER AND OTHER DISEASES” (The Board of Regents of the University of Texas System, priority 2018, published 2021).

Read-outs that look alike come from different tables or passages of the source.

As usually defined, the IC50 is the concentration that inhibits the measured activity by half.

For the compound `O=C1[C@@H](OS(=O)(=O)C2CCC2)[C@H](c2ccc(F)cn2)N1c1cc2c3ccccc3ccc2c2ccccc12` (racemic) [D, (±)-Trans-N-(chrysen-6-yl)-2-(5-fluoropyridin-2-yl)-4-oxoazetidin-3-yl cyclobutanesulfonate], the IC50 in assay [1] (setting [11]) was 0.118 µM; in [2], 1.39 ± 0.4 µM; in assay [3], 0.0608 µM; in assay [6], 0.73 ± 0.4 µM. Further, the “γ-H2AX (phospho-H2AX) staining” value in [4] is listed as “positive staining”. In assay [5], the “mechanism of cell death” value is “Apoptosis”. Further, in [7], the “rate of DNA replication and subsequent cell proliferation (BrdU incorporation)” value is “significantly low”.
As to `Nc1ccn([C@@H]2O[C@H](CO)[C@@H](O)C2(F)F)c(=O)n1` [Gemcitabine, reference compound], the IC50 in assay [1] (setting [11]) is 37.9 µM; in [1] (in vitro, triplicate, read-out: PANC-1 cell lines IC50), 37.9 µM; in assay [2], over 50 µM; in assay [8], at least 16 µM; in [6] it was 16.3 ± 0.6 µM; in [9], over 50 µM. Besides, the 50% inhibitory concentration (IC50) in [10] is over 50 µM.
